From publication PMC2518627 (Analytical Biochemistry, 2007)

Experiments:
[1] = Stability of nucleotides under different pH conditions (HPLC); type: physicochemical; settings: 1 mM, 6 h
Method: All high-performance liquid chromatography (HPLC) was carried out on an anion exchange resin (AGMP1, Bio-Rad, USA), packed in 150 × 2.5-mm Omnifit columns, using a concave upward gradient of trifluoroacetic acid (TFA), delivered by a Waters 600e pump, as described previously. Detection was performed by a UV detector (Waters 2487, UK) at 254 nm.
Samples were then neutralized with their base equivalence of either Tris base (for acidic solutions) or Hepes acid (for basic solutions) as applicable. Samples were analyzed by HPLC as described above, with elution times being determined from standard runs with known compounds.

[2] = target: NAADP binding protein from sea urchin (L. pictus) egg homogenate; experiment: NAADP radioreceptor binding assay (displacement of [32P]NAADP); parameters: species or system Lytechinus pictus; settings: for IC50: read-out: IC50 (displacement of [32P]NAADP binding), 1% sea urchin egg homogenate, 25 °C
Method: First, 25 μl of test sample was added to each tube. Second, 125 μl of 1% (v/v) sea urchin egg homogenate in intracellular medium was added and allowed to incubate for 10 min at 25 °C. […] The tubes were then incubated at room temperature for a further 10 min at 25 °C. Note that the order of addition is important to maximize the sensitivity of the assay. […] Washing was carried out three times using 1 ml of a buffer containing 20 mM Hepes and 500 mM potassium acetate (pH 7.4).
Radioactivity was determined by placing the filter circles in a scintillation vial containing 10 ml H2O, followed by Cerenkov scintillation counting.
Filter papers were wrapped in cling film and then placed in a cassette to expose a storage phosphor screen (GE Healthcare) for 1 to 4 h. The screen was then scanned using a Typhoon 9400 scanner (GE Healthcare) at a resolution of 100 μm. The resulting image was then analyzed using ImageQuant (GE Healthcare).
Samples are then filtered using a cell harvester. […] Sample concentrations may then be determined from the standard curve.

pancreatic acinar cells = experiment: NAADP levels in pancreatic acinar cells preincubated with BAPTA-AM; type: cell-based, CD1 mice
Method: Cells may be prepared in any suitable manner; gametes, isolated cells, chopped tissue, and cells in culture all have been used successfully. Cells were then exposed to agonist, and at the appropriate time points the reaction in cells was stopped by the addition of 0.75 M ice-cold HClO4 added as an equal volume of 1.5 M solution. Sonication (Jencons Vibracell at amplitude 60) was carried out to disrupt the cells, which were then placed on ice for 15 min. The denatured protein was pelleted by centrifugation at 9000g for 10 min and stored at –80 °C for later analysis. Supernatant was neutralized with 1 M KHCO3, added as an equal volume of 2 M solution, and vortexed. The resulting KClO4 precipitate was removed by centifugation at 9000g for 10 min. Samples were stored at –80 °C for later analysis.
Pancreatic acinar cells were prepared as described previously. Briefly, pancreata were excised from 8- to 10-week-old male CD1 mice and were finely chopped before incubation with 200 U/ml collagenase for 15 min at 37 °C. The digested tissue was then washed and resuspended to 10 ml with buffer of the following composition: 140 mM NaCl, 4.7 mM KCl, 1 mM MgCl2, 1 mM CaCl2, 10 mM Hepes, and 10 mM glucose (pH 7.4). Protease inhibitor cocktail tablets (EDTA free, Roche Diagnostics, UK), one tablet per 50 ml, were added to this solution before use. The suspension was triturated, and supernatant that contained dispersed cells was collected into a new tube. After centrifugation at 800g for 3 min at 4 °C, the supernatant was discarded and the cell pellet was resuspended for further trituration and centrifugation. The resulting supernatant was discarded, and the cells were kept in buffer supplemented with 1 mM CaCl2 at room temperature on a rocking board for 30 min before use. Prior to use, the cells were centrifuged at 800g for 1 min at 4 °C. The cells were suspended in the above buffer without the addition of protease inhibitors. Pancreatic acinar cells were aliquoted into tubes. […]

human NAD kinase = test system: human NAD kinase; parameters: method as in PMID 11594753; settings: cited from earlier work
[3] = 100 pM CCK after preincubation with 20 μM BAPTA-AM
[4] = maximum concentration tested 100 μM
[5] = maximum concentration tested 2 mM

Row | Compound | IC50 [2] [µM] | Displacement of NAADP at the maximum concentration tested [2, 4] | further results
1 | NC(=O)C1=CN([C@@H]2O[C@H](COP(=O)(O)OP(=O)(O)OC[C@H]3O[C@@H](n4cnc5c(N)ncnc54)[C@H](OP(=O)(O)O)[C@@H]3O)[C@@H](O)[C@H]2O)C=CC1 [NADPH] | 6.3 | – | Stability at pH 7.2 ([1]; 50 mM Hepes (pH 7.2)): remained stable; Stability at pH 0.88 ([1]; 0.75 M HClO4 (pH 0.88)): became unstable; Stability at pH 8.6 ([1]; 0.75 M HClO4/1 M KHCO3 (pH 8.6)): became unstable; Stability at pH 11 ([1]; 1 M K2CO3 (pH 11)): similarly unstable; Stability at pH 9.1 ([1]; 1 M KHCO3 (pH 9.1)): became unstable
2 | cholecystokinin [CCK] | – | – | Change in NAADP levels (pancreatic acinar cells; [3]): continuous increase; Duration of increase in NAADP levels (pancreatic acinar cells; [3]): at least 20 min
3 | nicotinamide adenine dinucleotide phosphate [NADP] | 21 | – | –
4 | Nc1ncnc2c1ncn2[C@@H]1O[C@H](COP(=O)(O)OP(=O)(O)O)[C@@H](O)[C@H]1O [ADP] | – | failed to displace | –
5 | Nc1ncnc2c1ncn2[C@@H]1O[C@H](COP(=O)(O)OP(=O)(O)OC[C@H]2OC(O)[C@H](O)[C@@H]2O)[C@@H](O)[C@H]1O (stereo partly shown) [ADPR] | – | failed to displace | –
6 | NC(=O)C1=CN([C@@H]2O[C@H](COP(=O)(O)OP(=O)(O)OC[C@H]3O[C@@H](n4cnc5c(N)ncnc54)[C@H](O)[C@@H]3O)[C@@H](O)[C@H]2O)C=CC1 [NADH] | – | – | Displacement of NAADP at the maximum concentration tested [2, 5]: failed to displace
7 | Nc1ncnc2c1ncn2[C@@H]1O[C@H](COP(=O)(O)O)[C@@H](O)[C@H]1O [AMP] | – | failed to displace | –
8 | O=P(O)(O)O[C@@H]1[C@H](O)[C@H](O)[C@@H](OP(=O)(O)O)[C@H](OP(=O)(O)O)[C@H]1O [IP3, D-myo-inositol 1,4,5-trisphosphate] | – | failed to displace | –
9 | nicotinic acid adenine dinucleotide phosphate [NAADP] | 0.00054 | – | –
10 | NC(=O)c1ccc[n+]([C@@H]2O[C@H](COP(=O)([O-])OP(=O)(O)OC[C@H]3O[C@@H](n4cnc5c(N)ncnc54)[C@H](O)[C@@H]3O)[C@@H](O)[C@H]2O)c1 [NAD, nicotinamide adenine dinucleotide] | – | – | Km (human NAD kinase): 800 µM; Displacement of NAADP at the maximum concentration tested [2, 5]: failed to displace
11 | N=c1c2ncn3c2ncn1[C@@H]1O[C@H](COP(=O)(O)OP(=O)(O)OC[C@H]2O[C@@H]3[C@H](O)[C@@H]2O)[C@@H](O)[C@H]1O [cADPR, cyclic ADP ribose] | 2.5 | – | –
12 | O=C(O)c1cccnc1 [nicotinic acid] | – | failed to displace | –
13 | CC(=O)OCOC(=O)CN(CC(=O)OCOC(C)=O)c1ccccc1OCCOc1ccccc1N(CC(=O)OCOC(C)=O)CC(=O)OCOC(C)=O [BAPTA-AM, 1,2-bis(2-aminophenoxy)ethane-N,N,N′,N′-tetraacetic acid tetrakis (acetoxymethyl) ester] | – | – | Change in NAADP levels (pancreatic acinar cells; 20 μM BAPTA-AM alone, followed by control buffer): no change
14 | Nc1ncnc2c1ncn2[C@@H]1O[C@H](COP(=O)(O)OP(=O)(O)OC[C@H]2O[C@@H]([n+]3cccc(C(=O)O)c3)[C@H](O)[C@@H]2O)[C@@H](O)[C@H]1O [NAAD, nicotinic acid adenine dinucleotide] | 51 | – | –
15 | Nc1ncnc2c1ncn2[C@@H]1O[C@H](COP(=O)(O)OP(=O)(O)OP(=O)(O)O)[C@@H](O)[C@H]1O [ATP] | – | failed to displace | –
